In patent publication US20160345827A1, “TWO-PHOTON MICROSCOPY IMAGING RETINA CELL DAMAGE” (POLGENIX, INC., priority 2014, published 2016):
“Also recorded” adds a separate entry of the source.

Legend:
[1] = system: Abca4^−/−Rdh8^−/− mice; test: light-induced retinal degeneration in Abca4^−/−Rdh8^−/− mice, TPM and histology at day 7; settings: Ret-NH2 1 mg per mouse oral gavage 16 h before, or Apo 1 mg/mouse i.p. 30 min before 10,000 lx light for 60 min; day 7
[2] = system: retinal explant tissue cultures; type: cell-based; settings: 6 h at 37° C, WT retinas
Description: FIGS. 6(A-B) illustrate images and a plot showing retinal degeneration is induced by atRAL in ex vivo retinal cultures. Retinas were removed from the eyecups of 4-wk-old C57BL/6J mice and cultured for 16 h at 37° C. Then retinas were incubated further with/without 30 μM of atRAL in the presence/absence of experimental drugs for 6 h at 37° C. Vehicle (DMSO), retinylamine (Ret-NH2) at 30 μM, or apocynin (Apo) at 300 μM was applied, together with atRAL. (A) Retinal morphology was examined after incubation with atRAL and with and without drugs. […] (B) TUNEL staining was performed with the ApoTag Peroxidase in Situ Apoptosis Detection Kit. Counter nuclear staining was accomplished with methyl green. […] (D) Retinas were removed from eyecups of 4-wk-old C57BL/6J mice and cultured with or without 30 μM of atRAL for 24 h at 37° C. After incubation, retinas were washed twice with PBS and then examined by TPM. Spectra from photoreceptor outer segments are shown (Left) along with representative magnified images (Right). Spectra from retinas cultured with atRAL featured a broad maximum absorption at 600 nm.
(§1) Eyes were enucleated, washed with a penicillin-streptomycin solution (Sigma), and rinsed with Hank's balanced salt solution (HyClone). Prepared mouse eyecups were flattened by creating retinal flaps. Flattened retinas were transferred onto filter paper and the retina was gently peeled off from the RPE/choroid. All these procedures were performed under a surgical microscope. Each retina on filter paper was placed into a well of a 12-well plate filled with 0.5 mL of DMEM (HyClone) with 10% FBS and incubated for 16 h at 37° C. Retinas then were washed twice with 0.5 mL of fresh DMEM containing 10% FBS and finally incubated again with/without 30 μM of atRAL for 6 h at 37° C. A lactate dehydrogenase (LDH) assay was performed to determine cellular death rates with a LDH activity assay kit (BioVision). The percentage of cytotoxicity was calculated as [(a retina with atRAL—a retina without atRAL)/(lysis control—a retina without atRAL)]×100.
The primary cause of acute retinal degeneration after bright light exposure in Abca4^−/−Rdh8^−/− mice is the delayed clearance of atRAL from photoreceptors. […] Thus, to examine whether retinal tissue lacking RPE cells can display degenerative changes similar to those observed in in vivo, we performed ex vivo culture experiments with retinal explants coincubated with atRAL. Neural retinas were dissected from eyes of 4-wk-old WT mice, and incubated with 30 μM of atRAL in the presence of control vehicle, 30 μM of retinylamine or 300 μM of apocynin for 6 h at 37° C. […] Cell death rates were calculated by measuring lactate dehydrogenase released into tissue culture supernatants from dying cells.

[3] = system: Abca4^−/−Rdh8^−/− (Dko) retinal cultures; test: ex vivo Dko retinal cultures incubated with atRAL (morphology, LDH); type: cell-based; settings: 6 h at 37° C
Description: FIGS. 11(A-B) illustrate images showing retinal degeneration is induced by atRAL in ex vivo Dko retinal cultures. Retinas were removed from the eyecups of 4-wk-old Abca4^−/−Rdh8^−/− (Dko) mice and cultured for 16 h at 37° C. Retinas were then incubated further with/without 30 μM of atRAL in the presence/absence of experimental drugs for 6 h at 37° C. Vehicle (DMSO), retinylamine (Ret-NH2) at 30 μM, or apocynin (Apo) at 300 μM was applied together with atRAL. (A) Retinal morphology was examined after incubation with atRAL. […] Bars indicate SD (n=3). *P<0.05.
as §1

Structure (SMILES) | light-induced retinal degeneration (retinal histology) [1] | protection of retinal morphology against atRAL-induced damage ([2]; Ret-NH2 30 μM or apocynin 300 μM together with 30 μM atRAL) | prevention of atRAL-induced photoreceptor apoptosis (TUNEL staining) ([2]; retinylamine 30 μM or apocynin 300 μM together with 30 μM atRAL, listed as APO) | effect on atRAL-induced cell death rate (LDH assay) ([3]; Ret-NH2 30 μM or Apo 300 μM together with 30 μM atRAL, Dko retinas) | retinal morphology (ONL) after incubation with atRAL ([3]; 30 μM atRAL with vehicle, Dko retinas) | retinal cell death (LDH assay) caused by atRAL ([3]; 30 μM atRAL, Dko retinal culture supernatants)
COc1cc(C(C)=O)ccc1O [apocynin] | can be prevented; also recorded: conferred protection | protected the ONL and INL | protected the ONL and INL | reduced | – | –
CC1=C(/C=C/C(C)=C/C=C/C(C)=C/C=O)C(C)(C)CCC1 [atRAL, all-trans-retinaldehyde] | – | – | – | – | markedly disrupted | caused retinal cell death
